What was measured:
[1] = in vivo
From the text: Gallium is absorbed very poorly when orally administered as salts such as the chloride or nitrate (Collery et al. (1989), “Clinical pharmacology of gallium chloride after oral administration in lung cancer patients,” Anticancer Res. 9:353-356; Ho et al. […] J.

[2] = format: physicochemical
Protocol: The material forms white to pale beige monoclinic crystals with unit cell parameters of about a=7.899(1)Å, b=8.765(1)Å, c=31.626(2)Å, beta=103.253(7) degrees, V=2131 Å^3, based on powder x-ray diffraction analysis. The solubility of this compound is measured as about 5 millimolar in distilled deionized water at 23° C. Crystallization from other solvents or under other conditions may produce other crystal structures. Under some conditions, water or other solvents may also be incorporated into the structure. […] About 5.5 grams of powdered anhydrous sodium carbonate are added, and stirring continues for additional 12 minutes. […] The remaining crystalline solid is the 3:1 maltol gallium composition. […] The solubility of this composition is measured as about 24 millimolar in distilled deionized water at 23° C.

Cc1occc(=O)c1[O-].Cc1occc(=O)c1[O-].Cc1occc(=O)c1[O-].[Ga+3] [gallium maltolate, tris(3-hydroxy-2-methyl-4H-pyran-4-onato)gallium]
Oral gallium absorption relative to gallium salts [1]: roughly ten times higher than from gallium salts
Solubility [2]: about 24 millimolar

— US20060222628A1, “Gallium complexes of 3-hydroxy-4-pyrones to treat infection by intracellular prokaryotes and DNA viruses” (priority 1999, published 2006)
